Earlier results, collected in US20080187561A1, “Enteric Coated Didanosine Compositions Having A Subcoat” (priority 2007, published 2008).

Settings: pH<3, 37° C., acidic solution

## OC[C@@H]1CC[C@H](n2cnc3c(O)ncnc32)O1 [didanosine, 2′,3′-dideoxyinosine]
  Time in which 10% of didanosine decomposes to hypoxanthine: less than 2 minutes
